Experimental data from ChEMBL document CHEMBL5137093, “Improving Drug Delivery While Tailoring Prodrug Activation to Modulate Cmax and Cmin by Optimization of (Carbonyl)oxyalkyl Linker-Based Prodrugs of Atazanavir” (J Med Chem, 2022).

Key:
[1] = Aqueous stability of the compound in acetate buffer at pH 4 assessed as compound half life measured after 24 hrs by UPLC analysis; assay type: physicochemical; conditions: buffer, pH 4, 24 h, 24 h
[2] = Aqueous stability of the compound in phosphate buffer at pH 6.5 assessed as compound half life measured after 24 hrs by UPLC analysis; assay type: physicochemical; conditions: buffer, pH 6.5, 24 h, 24 h
[3] = Aqueous solubility of compound at pH 1 by UPLC analysis; assay type: physicochemical; conditions: buffer
[4] = Aqueous solubility of compound at pH 4 by UPLC analysis; assay type: physicochemical; conditions: buffer
[5] = Cmax in Sprague-Dawley rat at 3 ml/kg,po measured upto 24 hrs by UPLC-MS/MS analysis; assay type: ADME; design: dose 3 ml/kg, time < 24 hrs, route po; conditions: in vivo
[6] = Tmax in Sprague-Dawley rat at 3 ml/kg,po measured upto 24 hrs by UPLC-MS/MS analysis; assay type: ADME; conditions: in vivo
[7] = AUClast in Sprague-Dawley rat at 3 ml/kg,po measured upto 24 hrs by UPLC-MS/MS analysis; assay type: ADME; design: time < 24 hrs, dose 3 ml/kg, route po; conditions: in vivo
[8] = Relative Cmax ratio of Atazanavir in Sprague-Dawley rat at 3 ml/kg,po measured upto 24 hrs by UPLC-MS/MS analysis; assay type: ADME; conditions: in vivo
[9] = Relative AUC ratio of Atazanavir in Sprague-Dawley rat at 3 ml/kg,po measured upto 24 hrs by UPLC-MS/MS analysis; assay type: ADME; conditions: in vivo
[10] = Fold ratio of total AUC of Atazanavir in Sprague-Dawley rat at 3 ml/kg,po measured upto 24 hrs by UPLC-MS/MS analysis; assay type: ADME; conditions: in vivo
[11] = Ratio of Cmax/Cmin of Atazanavir in Sprague-Dawley rat at 3 ml/kg,po measured after 24 hrs by UPLC-MS/MS analysis; assay type: ADME; conditions: in vivo
[12] = Ratio of AUC of Atazanavir in Sprague-Dawley rat at 3 ml/kg,po measured upto 24 hrs by UPLC-MS/MS analysis; assay type: ADME; conditions: in vivo
[13] = molecular target: T1, UDP-glucuronosyltransferase 1A1 (Homo sapiens, UniProt P22309); test: Inhibition of human recombinant UGT1A1 using bilirubin as substrate incubated for 40 mins by LC-MS/MS analysis
T1 sequence (P22309 whole entry): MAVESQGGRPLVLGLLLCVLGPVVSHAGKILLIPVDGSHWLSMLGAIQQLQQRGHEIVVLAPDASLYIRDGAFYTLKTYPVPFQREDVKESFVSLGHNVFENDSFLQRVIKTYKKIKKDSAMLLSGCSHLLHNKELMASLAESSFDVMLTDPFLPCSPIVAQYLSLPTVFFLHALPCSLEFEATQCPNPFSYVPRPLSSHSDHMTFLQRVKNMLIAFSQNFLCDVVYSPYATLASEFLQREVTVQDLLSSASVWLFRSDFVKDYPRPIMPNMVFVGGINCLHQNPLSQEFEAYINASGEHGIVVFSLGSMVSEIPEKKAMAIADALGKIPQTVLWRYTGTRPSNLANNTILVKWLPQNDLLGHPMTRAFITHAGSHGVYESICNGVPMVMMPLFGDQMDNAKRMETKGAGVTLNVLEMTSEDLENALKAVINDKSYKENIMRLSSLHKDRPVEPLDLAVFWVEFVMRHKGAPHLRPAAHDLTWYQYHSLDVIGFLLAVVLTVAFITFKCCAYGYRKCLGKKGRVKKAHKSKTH

[14] = molecular target: T1, UDP-glucuronosyltransferase 1A1; test: Inhibition of UGT1A1 in human liver microsomes using beta-estradiol as substrate incubated for 40 mins by LC-MS/MS analysis; design: species or system Microsome
[15] = Cmax in Sprague-Dawley rat at 25 ml/kg,po measured upto 24 hrs by UPLC-MS/MS analysis; assay type: ADME; design: time < 24 hrs, dose 25 ml/kg, route po; conditions: in vivo
[16] = Tmax in Sprague-Dawley rat at 25 ml/kg,po measured upto 24 hrs by UPLC-MS/MS analysis; assay type: ADME; conditions: in vivo
[17] = AUClast in Sprague-Dawley rat at 25 ml/kg,po measured upto 24 hrs by UPLC-MS/MS analysis; assay type: ADME; design: time < 24 hrs, dose 25 ml/kg, route po; conditions: in vivo
[18] = Relative Cmax ratio of Atazanavir in Sprague-Dawley rat at 25 ml/kg,po measured upto 24 hrs by UPLC-MS/MS analysis; assay type: ADME; conditions: in vivo
[19] = Relative AUC ratio of Atazanavir in Sprague-Dawley rat at 25 ml/kg,po measured upto 24 hrs by UPLC-MS/MS analysis; assay type: ADME; conditions: in vivo
[20] = Fold ratio of total AUC of Atazanavir in Sprague-Dawley rat at 25 ml/kg,po measured upto 24 hrs by UPLC-MS/MS analysis; assay type: ADME; conditions: in vivo
[21] = Ratio of Cmax/Cmin of Atazanavir in Sprague-Dawley rat at 25 ml/kg,po measured after 24 hrs by UPLC-MS/MS analysis; assay type: ADME; conditions: in vivo
[22] = Ratio of AUC of Atazanavir in Sprague-Dawley rat at 25 ml/kg,po measured upto 24 hrs by UPLC-MS/MS analysis; assay type: ADME; conditions: in vivo
[23] = Cmax in Sprague-Dawley rat at 1 ml/kg,iv measured upto 24 hrs by UPLC-MS/MS analysis; assay type: ADME; design: dose 1 ml/kg, time < 24 hrs, route iv; conditions: in vivo
[24] = AUClast in Sprague-Dawley rat at 1 ml/kg,iv measured upto 24 hrs by UPLC-MS/MS analysis; assay type: ADME; design: dose 1 ml/kg, time < 24 hrs, route iv; conditions: in vivo
[25] = Clearance in Sprague-Dawley rat at 1 ml/kg,iv measured upto 24 hrs by UPLC-MS/MS analysis; assay type: ADME; conditions: in vivo
[26] = Half life in Sprague-Dawley rat at 1 ml/kg,iv measured upto 24 hrs by UPLC-MS/MS analysis; assay type: ADME; conditions: in vivo
[27] = Volume of distribution at steady state in Sprague-Dawley rat at 1 ml/kg,iv measured upto 24 hrs by UPLC-MS/MS analysis; assay type: ADME; conditions: in vivo, read-out: Vdss
[28] = Relative Cmax ratio of Atazanavir in Sprague-Dawley rat at 1 ml/kg,iv measured upto 24 hrs by UPLC-MS/MS analysis; assay type: ADME; conditions: in vivo
[29] = Relative AUC ratio of Atazanavir in Sprague-Dawley rat at 1 ml/kg,iv measured upto 24 hrs by UPLC-MS/MS analysis; assay type: ADME; conditions: in vivo
[30] = Fold ratio of total AUC of Atazanavir in Sprague-Dawley rat at 1 ml/kg,iv measured upto 24 hrs by UPLC-MS/MS analysis; assay type: ADME; conditions: in vivo
[31] = Ratio of Cmax/Cmin of Atazanavir in Sprague-Dawley rat at 1 ml/kg,iv measured after 24 hrs by UPLC-MS/MS analysis; assay type: ADME; conditions: in vivo
[32] = Ratio of AUC of Atazanavir in Sprague-Dawley rat at 1 ml/kg,iv measured upto 24 hrs by UPLC-MS/MS analysis; assay type: ADME; conditions: in vivo
[33] = molecular target: Voltage-gated inwardly rectifying potassium channel KCNH2 (Homo sapiens, UniProt Q12809); test: Inhibition of human ERG by patch-clamp assay; assay type: toxicity
[34] = Cmax in Sprague-Dawley rat at 30 ml/kg,po measured upto 24 hrs by UPLC-MS/MS analysis; assay type: ADME; design: time < 24 hrs, dose 30 ml/kg, route po; conditions: in vivo
[35] = Tmax in Sprague-Dawley rat at 30 ml/kg,po measured upto 24 hrs by UPLC-MS/MS analysis; assay type: ADME; conditions: in vivo
[36] = AUClast in Sprague-Dawley rat at 30 ml/kg,po measured upto 24 hrs by UPLC-MS/MS analysis; assay type: ADME; design: time < 24 hrs, dose 30 ml/kg, route po; conditions: in vivo
[37] = Relative Cmax ratio of Atazanavir in Sprague-Dawley rat at 30 ml/kg,po measured upto 24 hrs by UPLC-MS/MS analysis; assay type: ADME; conditions: in vivo
[38] = Relative AUC ratio of Atazanavir in Sprague-Dawley rat at 30 ml/kg,po measured upto 24 hrs by UPLC-MS/MS analysis; assay type: ADME; conditions: in vivo
[39] = Fold ratio of total AUC of Atazanavir in Sprague-Dawley rat at 30 ml/kg,po measured upto 24 hrs by UPLC-MS/MS analysis; assay type: ADME; conditions: in vivo
[40] = Ratio of Cmax/Cmin of Atazanavir in Sprague-Dawley rat at 30 ml/kg,po measured after 24 hrs by UPLC-MS/MS analysis; assay type: ADME; conditions: in vivo
[41] = Ratio of AUC of Atazanavir in Sprague-Dawley rat at 30 ml/kg,po measured upto 24 hrs by UPLC-MS/MS analysis; assay type: ADME; conditions: in vivo

Sequence of Voltage-gated inwardly rectifying potassium channel KCNH2 (Q12809 whole entry): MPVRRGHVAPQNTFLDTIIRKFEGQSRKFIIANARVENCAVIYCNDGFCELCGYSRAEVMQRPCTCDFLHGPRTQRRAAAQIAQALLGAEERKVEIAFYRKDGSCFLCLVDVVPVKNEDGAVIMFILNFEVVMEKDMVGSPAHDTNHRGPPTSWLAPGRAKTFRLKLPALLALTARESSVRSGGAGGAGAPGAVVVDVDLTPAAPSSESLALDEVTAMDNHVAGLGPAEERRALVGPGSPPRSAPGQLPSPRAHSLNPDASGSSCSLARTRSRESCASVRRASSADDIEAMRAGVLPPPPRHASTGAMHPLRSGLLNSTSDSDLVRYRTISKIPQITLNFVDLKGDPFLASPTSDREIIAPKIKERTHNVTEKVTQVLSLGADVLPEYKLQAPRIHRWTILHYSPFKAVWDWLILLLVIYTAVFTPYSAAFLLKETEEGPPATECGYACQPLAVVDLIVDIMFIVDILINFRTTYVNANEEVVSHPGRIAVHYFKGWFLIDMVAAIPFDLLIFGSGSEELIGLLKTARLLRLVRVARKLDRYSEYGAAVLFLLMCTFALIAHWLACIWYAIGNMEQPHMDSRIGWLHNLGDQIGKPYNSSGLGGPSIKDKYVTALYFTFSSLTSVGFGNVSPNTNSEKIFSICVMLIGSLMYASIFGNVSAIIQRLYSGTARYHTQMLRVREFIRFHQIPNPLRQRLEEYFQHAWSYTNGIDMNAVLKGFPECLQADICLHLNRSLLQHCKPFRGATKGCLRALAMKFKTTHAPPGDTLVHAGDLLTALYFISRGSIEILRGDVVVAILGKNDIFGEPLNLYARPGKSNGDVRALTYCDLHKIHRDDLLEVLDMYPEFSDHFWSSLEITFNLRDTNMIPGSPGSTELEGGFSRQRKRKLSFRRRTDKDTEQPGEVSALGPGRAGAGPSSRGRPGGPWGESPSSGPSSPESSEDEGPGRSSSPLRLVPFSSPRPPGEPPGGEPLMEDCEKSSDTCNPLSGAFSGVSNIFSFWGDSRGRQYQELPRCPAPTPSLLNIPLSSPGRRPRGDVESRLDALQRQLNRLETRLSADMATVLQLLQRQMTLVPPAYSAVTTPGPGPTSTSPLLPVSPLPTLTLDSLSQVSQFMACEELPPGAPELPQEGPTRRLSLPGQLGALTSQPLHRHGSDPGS

| SMILES | t1/2 [1] [h] | t1/2 [2] [h] | solubility [3] [µg/mL] | solubility [4] [µg/mL] | Ratio [8] | Ratio [9] | Ratio [10] | Ratio [11] | Ratio [12] | Cmax [23] [nM] | AUC(0-t) at 24 h [24] [µM·h] | clearance [25] [mL/min/kg] | half-life [26] [h] | Vd [27] [L/kg] | Ratio [28] | Ratio [29] | Ratio [30] | Ratio [31] | Ratio [32] | also measured |
| --- | --- | --- | --- | --- | --- | --- | --- | --- | --- | --- | --- | --- | --- | --- | --- | --- | --- | --- | --- | --- |
| COC(=O)N[C@H](C(=O)N[C@@H](Cc1ccccc1)[C@H](CN(Cc1ccc(-c2ccccn2)cc1)NC(=O)[C@@H](NC(=O)OC)C(C)(C)C)OC(=O)OC(OC(=O)[C@H](N)C(C)C)C(C)C)C(C)(C)C (stereo in doubt; 5j) | 334.3 | 15.3 | > 1900 | > 1900 | 8.2 | 17.7 | 18 | 86.9 | 0.02 | 371 | 0.356 | 47 | 4 | 7.7 | 1.01 | 7.3 | 7.8 | 431.7 | 0.08 | Cmax ([5]; 24 h): 93 nM; Tmax ([6]; po, 24 h): 0.4 h; AUClast ([7]; 24 h): 0.12 µM·h; IC50 [13]: 1000 nM; IC50 [14]: 2100 nM; Cmax [15]: 123 nM; Tmax [16]: 2.3 h; AUC(0-t) at 24 h [17]: 1.23 µM·h; Ratio [18]: 1; Ratio [19]: 1.88; Ratio [20]: 1.94; Ratio [21]: 27.8; Ratio [22]: 0.03; IC50 [33]: 8800 nM |
| COC(=O)N[C@H](C(=O)N[C@@H](Cc1ccccc1)[C@H](CN(Cc1ccc(-c2ccccn2)cc1)NC(=O)[C@@H](NC(=O)OC)C(C)(C)C)OC(=O)OC(OC(=O)[C@@H](NC(=O)[C@H](N)C(C)C)C(C)C)C(C)C)C(C)(C)C (stereo in doubt; 6h) | 334.3 | 9.2 | > 2000 | > 1300 | 1 | 7.3 | 111.7 | 6.4 | 14.4 | 2180 | 10.5 | 2 | 7 | 1 | 0.11 | 2.3 | 18.8 | 22.8 | 7.31 | Cmax ([5]; Sprague-Dawley, 3 ml/kg): 3060 nM; Tmax ([6]; Sprague-Dawley, read-out: Tmax): 3 h; AUC(0-t) at 24 h ([7]; Sprague-Dawley, 3 ml/kg): 40.1 µM·h; Cmax [34]: 4130 nM; Tmax [35]: 3 h; AUC(0-t) at 24 h [36]: 68.3 µM·h; Ratio [37]: 0.08; Ratio [38]: 0.29; Ratio [39]: 3.56; Ratio [40]: 5.8; Ratio [41]: 11.46 |
